{"source": "patent US20200129509A1", "about": "“DOSING REGIMEN” (Cyclacel Limited, priority 2018, published 2020)", "key": {"AML cell lines": {"system": "AML cell lines", "assay": "Combination of CNDAC with hypomethylating agents in AML cell lines", "format": "cell-based", "details": "more apparent if cells are treated with hypomethylating agents first", "procedure": "Previous studies by the applicant have shown that in AML cell lines, the active metabolite of sapacitabine, CNDAC, is synergistic with hypomethylating agents and the synergy is more apparent if cells are treated with hypomethylating agents first. The present invention relates to the identification of new and previously undefined subgroups of AML patients for which treatment with an alternating regimen of sapacitabine and decitabine is particularly effective."}, "colon cancer": {"system": "colon cancer", "details": "model of colon cancer; cited from earlier work"}, "[1]": {"system": "patients with a variety of cancers", "details": "phase I, humans; cited from earlier work"}, "[2]": {"system": "cell line that is resistant to cytarabine", "details": "cited from earlier work"}, "[3]": {"details": "Antecedent MDS/MPN No and WBC ≥10,000"}, "[4]": {"details": "Antecedent MDS/MPN Yes and WBC <10,000"}, "[5]": {"details": "SWOG Not unfavourable and WBC <10,000"}, "[6]": {"details": "SWOG Unfavourable and WBC ≥10,000"}, "[7]": {"details": "all randomized patients (n=241 per arm)"}}, "note": "Where two headings read alike, the source gives them in different places.", "data": [{"smiles": "N#C[C@H]1[C@H](O)[C@@H](CO)O[C@H]1n1ccc(N)nc1=O", "note": "[CNDAC, 2′-C-cyano-2′-deoxy-1-β-D-arabino-pentofuranosyl cytosine]", "values": [{"measurement": "interaction with hypomethylating agents", "setting": "AML cell lines", "result": "synergistic"}]}, {"smiles": "Nc1ncn([C@H]2C[C@H](O)[C@@H](CO)O2)c(=O)n1", "note": "[Decitabine, 4-amino-1-(2-deoxy-β-D-erythro-pentofuranosyl)-1,3,5-triazin-2(1H)-one]", "values": [{"measurement": "1-year survival", "setting": "AML patients; [3]", "result": 36.7, "unit": "%"}, {"measurement": "CR rate", "setting": "AML patients; [3]", "result": 18.4, "unit": "%"}, {"measurement": "Median overall survival", "setting": "AML patients; [3]", "result": 5.5, "unit": "months"}, {"measurement": "1-year survival", "setting": "AML patients; [4]", "result": 27.5, "unit": "%"}, {"measurement": "CR rate", "setting": "AML patients; [4]", "result": 2.5, "unit": "%"}, {"measurement": "Median overall survival", "setting": "AML patients; [4]", "result": 4.9, "unit": "months"}, {"measurement": "1-year survival", "setting": "AML patients; Antecedent MDS/MPN: No", "result": 35.5, "unit": "%"}, {"measurement": "CR median duration", "setting": "AML patients; Antecedent MDS/MPN: No", "result": 10.4, "unit": "months"}, {"measurement": "CR rate", "setting": "AML patients; Antecedent MDS/MPN: No", "result": 12.9, "unit": "%"}, {"measurement": "Median overall survival", "setting": "AML patients; Antecedent MDS/MPN: No", "result": 6.7, "unit": "months"}, {"measurement": "1-year survival", "setting": "AML patients; Antecedent MDS/MPN: Yes", "result": 32.9, "unit": "%"}, {"measurement": "CR median duration", "setting": "AML patients; Antecedent MDS/MPN: Yes", "result": 7.1, "unit": "months"}, {"measurement": "CR rate", "setting": "AML patients; Antecedent MDS/MPN: Yes", "result": 5.7, "unit": "%"}, {"measurement": "Median overall survival", "setting": "AML patients; Antecedent MDS/MPN: Yes", "result": 5.0, "unit": "months"}, {"measurement": "1-year survival", "setting": "AML patients; [5]", "result": 31.8, "unit": "%"}, {"measurement": "CR rate", "setting": "AML patients; [5]", "result": 5.7, "unit": "%"}, {"measurement": "Median overall survival", "setting": "AML patients; [5]", "result": 5.6, "unit": "months"}, {"measurement": "1-year survival", "setting": "AML patients; [6]", "result": 30.0, "unit": "%"}, {"measurement": "CR rate", "setting": "AML patients; [6]", "result": 0, "unit": "%"}, {"measurement": "Median overall survival", "setting": "AML patients; [6]", "result": 3.0, "unit": "months"}, {"measurement": "1-year survival", "setting": "AML patients; SWOG category Not Unfavourable", "result": 35.9, "unit": "%"}, {"measurement": "CR rate", "setting": "AML patients; SWOG category Not Unfavourable", "result": 11.6, "unit": "%"}, {"measurement": "Median overall survival", "setting": "AML patients; SWOG category Not Unfavourable", "result": 5.7, "unit": "months"}, {"measurement": "1-year survival", "setting": "AML patients; SWOG category Unfavourable", "result": 33.0, "unit": "%"}, {"measurement": "CR rate", "setting": "AML patients; SWOG category Unfavourable", "result": 9.6, "unit": "%"}, {"measurement": "Median overall survival", "setting": "AML patients; SWOG category Unfavourable", "result": 5.7, "unit": "months"}, {"measurement": "Patients aged 80 and over, median overall survival", "setting": "AML patients; aged 80 and over, <10,000 WBC", "result": 4.2, "unit": "months"}, {"measurement": "Median overall survival", "setting": "AML patients; [7]", "result": 5.7, "unit": "months"}, {"measurement": "patients achieved CR", "setting": "AML patients; [7]", "result": 10.8, "unit": "%"}, {"measurement": "1-year survival", "setting": "AML patients; patients with <10,000 WBC", "result": 32.9, "unit": "%"}, {"measurement": "CR median duration", "setting": "AML patients; patients with <10,000 WBC", "result": 10.4, "unit": "months"}, {"measurement": "CR rate", "setting": "AML patients; patients with <10,000 WBC", "result": 8.6, "unit": "%"}, {"measurement": "Median overall survival", "setting": "AML patients; patients with <10,000 WBC", "result": 5.8, "unit": "months"}, {"measurement": "1-year survival", "setting": "AML patients; patients with ≥10,000 WBC", "result": 38.5, "unit": "%"}, {"measurement": "CR median duration", "setting": "AML patients; patients with ≥10,000 WBC", "result": 10.1, "unit": "months"}, {"measurement": "CR rate", "setting": "AML patients; patients with ≥10,000 WBC", "result": 15.2, "unit": "%"}, {"measurement": "Median overall survival", "setting": "AML patients; patients with ≥10,000 WBC", "result": 5.5, "unit": "months"}]}, {"smiles": "CCCCCCCCCCCCCCCC(=O)Nc1ccn([C@@H]2O[C@H](CO)[C@@H](O)[C@@H]2C#N)c(=O)n1", "note": "[Sapacitabine, 1-(2-C-cyano-2-deoxy-β-D-arabino-pentofuranosyl)-N^4-palmitoyl cytosine]", "values": [{"measurement": "anticancer activity", "setting": "colon cancer", "result": "strong anticancer activity"}, {"measurement": "increasing survival and preventing spread of colon cancer metastases to the liver, compared with gemcitabine or 5-FU", "setting": "colon cancer", "result": "superior to either gemcitabine or 5-FU"}, {"measurement": "dose-limiting toxicity", "setting": "[1]", "result": "myelosuppression"}, {"measurement": "tolerability", "setting": "[1]", "result": "well tolerated"}]}, {"smiles": "Nc1ccn([C@@H]2O[C@H](CO)[C@@H](O)[C@@H]2O)c(=O)n1", "note": "[cytarabine]", "values": [{"measurement": "IC50", "setting": "[2]; after 5-azacitidine (dCK upregulation)", "result": 0.55, "unit": "µM"}, {"measurement": "IC50", "setting": "[2]; before 5-azacitidine", "result": 12.5, "unit": "µM"}]}]}
